ChEMBL document CHEMBL4680129, “Hit-to-lead optimization of novel 2-alkylaminomethylquinoline derivatives as anti-chagas agents” (Eur J Med Chem, 2020)
Calls of active or inactive are those of the source. The rule behind the calls is not given here.

Columns and labels:
[1] = Selectivity index, ratio of CC50 African green monkey Vero cells to IC50 for Trypanosoma cruzi trypomastigotes; type: toxicity; conditions: read-out: Selectivity Index
[2] = tested on: Trypanosoma cruzi; test: Antitrypanosomal activity against bloodstream Trypanosoma cruzi trypomastigotes measured after 24 hrs by Neubauer chamber method; type: functional, organism-based
[3] = Selectivity index, ratio of CC50 African green monkey Vero cells to IC50 for Trypanosoma cruzi epimastigotes; type: toxicity; conditions: read-out: Selectivity Index
[4] = Cytotoxicity against African green monkey Vero cells assessed as reduction in cell viability measured after 24 hrs by MTT assay; type: cell-based; conditions: chlorocebus sabaeus
[5] = tested on: Trypanosoma cruzi; test: Antitrypanosomal activity against Trypanosoma cruzi epimastigotes measured after 72 hrs by Neubauer hemocytometer counting method; type: functional, organism-based
[6] = tested on: Trypanosoma cruzi; test: Anti-chagasic activity against Trypanosoma cruzi trypomastigotes infected in C3H mouse assessed as physically healthy with shiny appearance at 10 mg/kg, po treated 10 days post infection measured on day 19; type: functional, organism-based; conditions: time 9.0 day
[7] = tested on: Trypanosoma cruzi; test: Antitrypanosomal activity against […] expressing beta-galactosidase infected in african green monkey VERO cells incubated for 5 days measured by microplate reader assay; type: functional, organism-based; conditions: 120 h
[8] = tested on: Trypanosoma cruzi; test: Anti-chagasic activity against Trypanosoma cruzi trypomastigotes infected in C3H mouse assessed as reduction in parasitemia at 10 mg/kg, po treated 10 days post infection for 7 consecutive days by Neubauer chamber counting method relative to control; type: functional; set-up: scale not given: the % may be the effect or the level left; conditions: time 7 day
[9] = Toxicity in C3H mouse infected with Trypanosoma cruzi trypomastigotes assessed as mortality at 10 to 50 mg/kg, po treated 10 days post infection for 7 consecutive days; type: organism-based; conditions: in vivo, 168 h, dose 10-50 mg/kg, time 7 day
[10] = tested on: Trypanosoma cruzi; test: Anti-chagasic activity against Trypanosoma cruzi trypomastigotes infected in C3H mouse assessed as well-groomed fur and alert at 10 mg/kg, po treated 10 days post infection measured on day 19; type: functional, organism-based; conditions: time 9.0 day
[11] = Selectivity index, ratio of CC50 African green monkey Vero cells to IC50 for Trypanosoma cruzi amastigotes; type: toxicity; conditions: read-out: Selectivity Index
[12] = tested on: Trypanosoma cruzi; test: Anti-chagasic activity against Trypanosoma cruzi trypomastigotes infected in C3H mouse assessed as increase in body weight at 10 mg/kg, po treated 10 days post infection measured on day 19 (reference value: -1.8%); type: functional; conditions: time 9.0 day
[13] = tested on: Trypanosoma cruzi; test: Anti-chagasic activity against Trypanosoma cruzi trypomastigotes infected in C3H mouse assessed as active behaviour at 10 mg/kg, po treated 10 days post infection measured on day 19; type: functional, organism-based; conditions: time 9.0 day
[14] = tested on: Trypanosoma cruzi; test: Anti-chagasic activity against Trypanosoma cruzi trypomastigotes infected in C3H mouse assessed as reduction in parasitemia at 50 mg/kg, po treated 10 days post infection for 7 consecutive days by Neubauer chamber counting method relative to control; type: functional; conditions: time 7.0 day

| IC50 [2] [µM] | IC50 [5] [µM] | Compound | selectivity ratio [1] | selectivity ratio [3] | CC50 at 24 h [4] [µM] | Activity [6] | IC50 [7] [µM] | Activity [8] [%] | Activity [9] | Activity [10] | selectivity ratio [11] | Activity [12] | Activity [13] | Activity [14] |
| --- | --- | --- | --- | --- | --- | --- | --- | --- | --- | --- | --- | --- | --- | --- |
| 11.9 | 11.2 | O=C(O)c1c(CNCCN2CCOCC2)nc2ccc(Cl)cc2c1-c1ccccc1 | 18.5 | 19.7 | 221 | – | – | – | – | – | – | – | – | – |
| 56.1 | 4.2 | O=C(O)c1c(CN2CCN(CCO)CC2)nc2ccc(Cl)cc2c1-c1ccccc1 | 0.6 | 8.6 | 36 | – | – | – | – | – | – | – | – | – |

| Compound | IC50 [2] [µM] | IC50 [5] [µM] | selectivity ratio [1] | selectivity ratio [3] | CC50 at 24 h [4] [µM] | Activity [6] | IC50 [7] [µM] | Activity [8] [%] | Activity [9] | Activity [10] | selectivity ratio [11] | Activity [12] | Activity [13] | Activity [14] |
| --- | --- | --- | --- | --- | --- | --- | --- | --- | --- | --- | --- | --- | --- | --- |
| O=C(Cn1ccnc1[N+](=O)[O-])NCc1ccccc1 [BENZNIDAZOLE] | 34.1 | 5.8 | 20.7 | 122 | 706 | Active | 3.6 | 58.9 | Non-Toxic | Active | 196 | inactive | Active | inactive |
